Among the data in ChEMBL document CHEMBL1153200, “Discovery of 3,6-dihydro-2H-pyran as a morpholine replacement in 6-aryl-1H-pyrazolo[3,4-d]pyrimidines and 2-arylthieno[3,2-d]pyrimidines: ATP-competitive inhibitors of the mammalian target of rapamycin (mTOR)” (Bioorg Med Chem Lett, 2010) are IC50, Ratio IC50 and half-life values, retold here.

The structures appear in SMILES notation.

The target of series [1] is Serine/threonine-protein kinase mTOR (Homo sapiens, UniProt P42345). Kind of series: Inhibition of mTOR in HEK293 cells by DELFIA assay. It counts as cell-based.
Series [2] in a line: Selectivity ratio, IC50 for PI3Kalpha to IC50 for human mTOR.
Another series has as its system LNCaP. The series can be described thus: Cytotoxicity against human LNCAP cells after 1 to 2 hrs by MTS assay. It counts as functional, cell-based.
The nature of series [3]: Half life in nude mouse microsomes. It counts as ADME, Microsome.
For series [4], the target named is Phosphatidylinositol 4,5-bisphosphate 3-kinase catalytic subunit alpha isoform (Homo sapiens, UniProt P42336). Kind of series: Inhibition of PI3Kalpha by fluorescence polarization assay.
Sequence of Phosphatidylinositol 4,5-bisphosphate 3-kinase catalytic subunit alpha isoform (P42336 whole entry, canonical isoform): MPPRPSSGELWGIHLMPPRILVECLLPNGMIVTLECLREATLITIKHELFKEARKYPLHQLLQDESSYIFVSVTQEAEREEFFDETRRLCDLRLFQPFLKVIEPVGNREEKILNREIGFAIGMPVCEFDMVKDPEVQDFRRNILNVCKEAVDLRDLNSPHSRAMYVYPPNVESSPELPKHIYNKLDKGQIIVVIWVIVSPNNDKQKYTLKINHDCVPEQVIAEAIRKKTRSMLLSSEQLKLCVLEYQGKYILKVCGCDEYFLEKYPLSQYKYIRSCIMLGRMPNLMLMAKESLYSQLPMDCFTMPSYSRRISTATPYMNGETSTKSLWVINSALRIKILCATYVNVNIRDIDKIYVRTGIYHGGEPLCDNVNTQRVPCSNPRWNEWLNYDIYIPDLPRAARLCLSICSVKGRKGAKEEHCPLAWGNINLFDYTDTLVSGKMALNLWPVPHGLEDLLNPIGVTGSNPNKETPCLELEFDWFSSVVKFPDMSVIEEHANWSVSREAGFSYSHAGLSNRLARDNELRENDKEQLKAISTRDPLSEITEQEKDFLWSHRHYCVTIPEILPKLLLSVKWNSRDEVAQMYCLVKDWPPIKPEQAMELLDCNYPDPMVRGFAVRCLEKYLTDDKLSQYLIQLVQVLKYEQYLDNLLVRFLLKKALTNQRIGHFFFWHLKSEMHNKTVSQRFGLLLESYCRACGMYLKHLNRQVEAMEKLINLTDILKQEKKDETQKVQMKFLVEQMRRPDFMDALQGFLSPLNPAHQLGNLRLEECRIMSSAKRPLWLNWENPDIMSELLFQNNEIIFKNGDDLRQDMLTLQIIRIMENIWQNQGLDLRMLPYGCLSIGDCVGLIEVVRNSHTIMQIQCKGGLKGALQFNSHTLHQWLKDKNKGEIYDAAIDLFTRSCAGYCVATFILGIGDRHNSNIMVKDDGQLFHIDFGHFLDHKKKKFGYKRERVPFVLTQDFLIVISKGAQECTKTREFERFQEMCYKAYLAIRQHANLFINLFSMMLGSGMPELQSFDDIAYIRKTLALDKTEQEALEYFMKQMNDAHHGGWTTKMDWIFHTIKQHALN

In the case of `O=C(Nc1ccc(-c2nc(C3=CCOCC3)c3cnn(CC(F)(F)F)c3n2)cc1)Nc1cccnc1`, the IC50 in series [1] was 1 nM; with LNCaP, 380 nM. Moreover, the Ratio IC50 in series [2] is 66. In addition, the half-life in series [3] turned out to be 25 min.
As for `Oc1cccc(-c2nc(C3CCOCC3)c3cnn(-c4ccccc4)c3n2)c1`, the IC50 in series [1] was found to be 500 nM; in series [4], 1010 nM. The Ratio IC50 in series [2] was 2.
For `O=C(Nc1ccc(-c2nc(N3CCOCC3)c3cnn(CC(F)(F)F)c3n2)cc1)Nc1cccnc1`, the values for the IC50 (in series [1]; in the series on LNCaP) were 0.2 nM and below 27 nM, respectively. Moreover, in series [2], the Ratio IC50 is 50. In series [3], this molecule gave a half-life above 30 min.
For the molecule `O=C(NCCF)Nc1ccc(-c2nc(N3CCOCC3)c3cnn(CC(F)(F)F)c3n2)cc1`, the values for the IC50 (in series [1] (hek293); in the series with LNCaP) were 0.6 nM and 60 nM, respectively. For the same molecule, the Ratio IC50 in series [2] worked out at 525. In addition, in series [3], the half-life was determined as 22 min.
As to `O=C(Nc1ccncc1)Nc1ccc(-c2nc(C3=CCOCC3)c3sccc3n2)cc1`, the IC50 stood at 1.8 nM in series [1], 27 nM in series [4] and 200 nM in the series on LNCaP. In addition, the Ratio IC50 in series [2] came out at 15. Moreover, the half-life in series [3] is above 30 min.
With `Oc1cccc(-c2nc(C3=CCOCC3)c3cnn(-c4ccccc4)c3n2)c1`, the 50% inhibitory concentration (IC50) in series [1] was 18 nM; in series [4] it was 59 nM. The Ratio IC50 in series [2] was 3.3.
On to `O=C(NCCF)Nc1ccc(-c2nc(C3=CCOCC3)c3cnn(CC(F)(F)F)c3n2)cc1`, for which the IC50 is 1 nM in series [1] and 72 nM with LNCaP. The Ratio IC50 in series [2] was found to be 2300. The molecule also yielded a half-life in series [3] above 30 min.
Turning to `O=C(Nc1ccc(-c2nc(C3=CCOCC3)c3sccc3n2)cc1)Nc1cccnc1`, the IC50 in series [1] was found to be 1.1 nM; in series [4] it was 35 nM; in the series with LNCaP, 210 nM. In addition, the Ratio IC50 in series [2] is 32. The half-life in series [3] was above 30 min.
As to `CNC(=O)Nc1ccc(-c2nc(N3CCOCC3)c3cnn(CC(F)(F)F)c3n2)cc1`, the IC50 in series [1] (hek293) was determined as 1 nM; in the series with LNCaP, 230 nM. For the same molecule, the Ratio IC50 in series [2] came out at 194. Besides, the half-life in series [3] worked out at 26 min.
`O=C(Nc1ccccc1)Nc1ccc(-c2nc(C3=CCOCC3)c3sccc3n2)cc1`: the IC50 was 7.2 nM in series [1], 28 nM in series [4] and 800 nM with LNCaP. Moreover, in series [2], the Ratio IC50 worked out at 4. Moreover, the half-life in series [3] was 21 min.
`CCNC(=O)Nc1ccc(-c2nc(C3=CCOCC3)c3sccc3n2)cc1`: the IC50 was found to be 3.3 nM in series [1], 1050 nM in series [4] and 470 nM with LNCaP. In series [2], the Ratio IC50 was 319. In addition, in series [3], the half-life was determined as 3 min.
On the same counts, the results for `CNC(=O)Nc1ccc(-c2nc(C3=CCOCC3)c3cnn(CC(F)(F)F)c3n2)cc1` are 2 nM, 200 nM, 260 nM, 100 and 13 min.
For `O=C(NCCF)Nc1ccc(-c2nc(C3=CCOCC3)c3sccc3n2)cc1`, in that order: 2.5 nM, 1370 nM, 1300 nM, 560 and 6 min.
